Data reported in paper PMC7932521, “2-aminobenzimidazoles for leishmaniasis: From initial hit discovery to in vivo profiling” (PLoS Neglected Tropical Diseases, 2021).
pIC50: −log10 of the molar value.

Experiments:
[1] = Human liver microsomal stability; assay type: in vitro ADME; conditions: liver microsomes, pH 7.4; human liver microsome; read-out: HLM Clint
Experimental: The metabolic stability of the compounds was evaluated in human (pool of 200 donors, XenoTech) and mouse liver microsomes (CD1 mouse, GIBCO). Test compounds were prepared at a concentration of 0.5 μM and incubated with 0.25 mg/mL liver microsomes at pH 7.4 and 37°C. The reaction was started by addition of NADPH at […]. Samples were taken at 0, 5, 10, 15, 20 and 30 minutes. The reaction was stopped by the addition of acetonitrile:methanol (1:1) containing an internal standard (tolbutamide at 50 nM). Compounds were quantified by liquid chromatography triple quadrupole mass spectrometry (LC-MS/MS). Peak area ratios (analyte/internal standard) were converted to % remaining using the area ratio at time 0 as 100%. Half-life (t1/2 = ln(2)/k) in minutes and intrinsic clearance (Clint = k x 1000/(0.25)) in μL/min/mg were calculated using a non-linear regression from % remaining versus incubation time. From this plot, the slope (k) was determined. The analysis conditions were: analytical column (Gemini C18, […], Phenomenex), electrospray ionization source (ESI) in positive and negative mode, mobile phase A (water + 0.1% formic acid) and B (acetonitrile + 0.1% formic acid), flow rate of 0.7 mL/min.

Plasma protein binding = assay type: in vitro ADME; conditions: mouse, pH 7.4, % bound, read-out: Mouse PPB (converted)
Experimental: For plasma protein binding, pooled plasma was thawed in a water bath at 37°C and centrifuged at 4,000 rpm for 5 min to remove any clots. The pH value was measured and adjusted to 7.4, if necessary. RPMI medium (pH 7.4) supplemented with 10% fetal calf serum was used. Working solutions (400 μM) of test compounds were prepared by diluting appropriate volume of the stock solutions with DMSO. Working solutions (400 μM) were spiked into plasma to achieve 2 μM final concentrations as loading solutions. The concentration of organic solvent in the final solutions was 0.5% DMSO. The dialysis instrument was assembled following manufacturer’s instructions. Aliquots of loading solution were loaded in triplicate to the donor side of each dialysis well and dialyzed against an equal volume of dialysis buffer. The plate was shaken and incubated for 6 hours in a humidified incubator with 5% CO2 at 37°C. At the end of dialysis, aliquots of dialysate and retentate were removed into sample collection plates. Each sample was matched with an opposite blank buffer or plasma, with a ratio of matrix:dialysis buffer of 50:50 (v:v) in each well and participated with 500μL of stop solution (50% acetonitrile/methanol; internal standards—200 ng/mL tolbutamide, labetalol and 50 ng/mL metformin). All sample collection plates were rotated at 800 rpm for 5 min to mix samples and centrifuged at 20°C, 4000 rpm for 20 min. Aliquots of supernatant of all the samples were removed and injected into LC-MS/MS. Results were calculated as the percentage of remaining parent compound in plasma or medium after incubation.

[2] = system: L. donovani MHOM/ NP/2003/ BPK282/0-cl4; experiment: VL/CL panel, intracellular amastigotes; assay type: cell-based; conditions: Leishmania donovani; average; read-out: IC-50 L. donovani MHOM/ NP/2003/ BPK282/0-cl4
Experimental: (§1) For the antileishmania in vitro assays, 3×10^4 PMM/well were seeded in 96-well plates. After 24h, 5×10^5 amastigotes/well were added and incubated for 2h at 37°C. Next, the compounds in 4-fold serial dilutions were added and the plates were further incubated for 5 days (37°C, 5% CO2). Parasite burdens were assessed using an inverted microscope after Giemsa staining. The results were expressed as percent reduction in parasite burdens compared to negative control wells (100% growth) and IC50 values were determined. Values represent the geometric mean of at least two independent experiments. Miltefosine was used as the positive control in all plates.

[3] = system: L. donovani MHOM/ET/2007/LLM-1600; experiment: VL/CL panel, intracellular amastigotes; assay type: cell-based; conditions: Leishmania donovani; average; read-out: IC-50 L. donovani MHOM/ET/2007/LLM-1600
Experimental: as §1

[4] = system: L. donovani MHOM/NP/03/BPK275/0-cl18; experiment: VL/CL panel, intracellular amastigotes; assay type: cell-based; conditions: Leishmania donovani; average; read-out: IC-50 L. donovani MHOM/NP/03/BPK275/0-cl18
Experimental: as §1

[5] = system: L. guyanensis MHOM/PE/02/PER 054/0; experiment: VL/CL panel, intracellular amastigotes; assay type: cell-based; conditions: Leishmania guyanensis; average; read-out: IC-50 L. guyanensis MHOM/PE/02/PER 054/0
Experimental: as §1

[6] = system: L. infantum LEM3323-cl4 MIL; experiment: VL/CL panel, intracellular amastigotes; assay type: cell-based; conditions: Leishmania infantum, read-out: IC-50 L. infantum LEM3323-cl4 MIL
Experimental: as §1

[7] = system: L. infantum LEM3323-cl4 PMM; experiment: VL/CL panel, intracellular amastigotes; assay type: cell-based; conditions: Leishmania infantum, read-out: IC-50 L. infantum LEM3323-cl4 PMM
Experimental: as §1

[8] = system: L. infantum MHOM/BR/2007/WC (L3015); experiment: VL/CL panel, intracellular amastigotes; assay type: cell-based; conditions: Leishmania infantum; average; read-out: IC-50 L. infantum MHOM/BR/2007/WC (L3015)
Experimental: as §1

[9] = system: L. infantum MHOM/ES/2016/LLM-2346; experiment: VL/CL panel, intracellular amastigotes; assay type: cell-based; conditions: Leishmania infantum; average; read-out: IC-50 L. infantum MHOM/ES/2016/LLM-2346
Experimental: as §1

[10] = system: L. infantum MHOM/FR/96/LEM3323-cl4; experiment: VL/CL panel, intracellular amastigotes; assay type: cell-based; conditions: Leishmania infantum; average; read-out: IC-50 L. infantum MHOM/FR/96/LEM3323-cl4
Experimental: as §1

[11] = system: L. major MHOM/IL/81/Friedlin; experiment: VL/CL panel, intracellular amastigotes; assay type: cell-based; conditions: Leishmania major; average; read-out: IC-50 L. major MHOM/IL/81/Friedlin
Experimental: as §1

[12] = system: L. major MHOM/SA/85/JISH118; experiment: VL/CL panel, intracellular amastigotes; assay type: cell-based; conditions: Leishmania major; average; read-out: IC-50 L. major MHOM/SA/85/JISH118
Experimental: as §1

[13] = system: L. panamensis MHOM/PA/71/LS94; experiment: VL/CL panel, intracellular amastigotes; assay type: cell-based; conditions: Leishmania panamensis; average; read-out: IC-50 L. panamensis MHOM/PA/71/LS94
Experimental: as §1

[14] = system: L. tropica MHOM/AF/2015/HTD7; experiment: VL/CL panel, intracellular amastigotes; assay type: cell-based; conditions: Leishmania tropica; average; read-out: IC-50 L. tropica MHOM/AF/2015/HTD7
Experimental: as §1

| SMILES | microsomal CLint at 0.5 μM [1] | fraction unbound at 6 h, 2 μM (Plasma protein binding) | pIC50 [2] | pIC50 [3] | pIC50 [4] | pIC50 [5] | pIC50 [6] | pIC50 [7] | pIC50 [8] | pIC50 [9] | pIC50 [10] | pIC50 [11] | pIC50 [12] | pIC50 [13] | pIC50 [14] |
| --- | --- | --- | --- | --- | --- | --- | --- | --- | --- | --- | --- | --- | --- | --- | --- |
| Cn1nc(C(F)(F)F)cc1C(=O)Nc1nc2ccc(C#N)cc2n1CC(F)(F)F [Compound 39, O=C(c1cc(C(F)(F)F)nn1C)Nc2nc(ccc(C#N)c3)c3n2CC(F)(F)F] | 20 µL/min/mg | 0.006 | 7.00 | 5.79 | 6.96 | 5.97 | 5.38 | 5.49 | 5.44 | 5.33 | 5.52 | 5.52 | 4.77 | 5.91 | 5.23 |
| Cn1nccc1C(=O)Nc1nc2ccc(C#N)cc2n1CC(C)(C)C [Compound 29, O=C(Nc1n(CC(C)(C)C)c(c2n1)cc(C#N)cc2)c3n(C)ncc3] | 25 µL/min/mg | 0.029 | 6.52 | 5.39 | 5.99 | 6.26 | 5.67 | 5.79 | 5.57 | 5.50 | 5.55 | 5.77 | 5.06 | 6.20 | 5.55 |
| N#Cc1ccc2nc(NC(=O)c3ccnc(C(F)(F)F)c3)n(CC(F)(F)F)c2c1 [Compound 44, O=C(c1ccnc(C(F)(F)F)c1)Nc2nc(ccc(C#N)c3)c3n2CC(F)(F)F] | 30 µL/min/mg | 0.008 | – | – | – | – | – | – | – | – | – | – | – | – | – |
| Cn1nccc1C(=O)Nc1nc2ccc(C#N)cc2n1CC(F)(F)F [Compound 30, O=C(c1ccnn1C)Nc2nc(ccc(C#N)c3)c3n2CC(F)(F)F] | 17 µL/min/mg | 0.042 | – | – | – | – | – | – | – | – | – | – | – | – | – |
